Laboratory results: patent publication US20060088472A1, “E7 regulation of p21 cip1 through akt” (priority 2002, published 2006)
Read-outs that look alike come from different tables or passages of the source. Residues, ends and D or L forms follow the SMILES beside them. *: point of attachment. Cbz = O=C(OCc1ccccc1)*

T1: RB (retinoblastoma protein, endogenous, in lysate of RafAR-NIH3T3 control cells) (UniProt P13405 2-921)
T1 sequence: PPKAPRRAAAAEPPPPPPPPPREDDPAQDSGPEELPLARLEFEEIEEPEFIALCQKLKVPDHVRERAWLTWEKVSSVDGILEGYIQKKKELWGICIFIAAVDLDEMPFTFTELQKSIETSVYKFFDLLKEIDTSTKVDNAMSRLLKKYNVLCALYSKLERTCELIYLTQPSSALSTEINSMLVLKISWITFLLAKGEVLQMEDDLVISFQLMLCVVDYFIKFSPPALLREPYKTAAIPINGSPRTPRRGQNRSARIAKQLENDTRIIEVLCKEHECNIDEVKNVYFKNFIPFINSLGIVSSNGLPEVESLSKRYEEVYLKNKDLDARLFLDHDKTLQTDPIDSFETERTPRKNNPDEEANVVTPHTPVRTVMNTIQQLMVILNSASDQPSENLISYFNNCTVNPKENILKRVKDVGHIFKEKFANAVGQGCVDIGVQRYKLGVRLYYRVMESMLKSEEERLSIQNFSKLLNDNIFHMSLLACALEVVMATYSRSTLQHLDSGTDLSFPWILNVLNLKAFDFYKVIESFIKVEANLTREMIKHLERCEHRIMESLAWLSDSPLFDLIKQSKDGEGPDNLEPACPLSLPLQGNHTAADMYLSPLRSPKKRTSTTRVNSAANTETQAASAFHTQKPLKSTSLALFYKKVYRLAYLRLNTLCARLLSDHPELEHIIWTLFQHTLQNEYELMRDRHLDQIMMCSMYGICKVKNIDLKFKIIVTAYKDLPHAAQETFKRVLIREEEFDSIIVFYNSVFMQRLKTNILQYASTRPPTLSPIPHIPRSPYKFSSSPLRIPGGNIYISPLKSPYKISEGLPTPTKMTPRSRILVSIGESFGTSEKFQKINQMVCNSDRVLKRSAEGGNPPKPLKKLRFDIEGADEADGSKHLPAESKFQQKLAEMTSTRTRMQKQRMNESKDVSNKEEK

B1: p21^Cip1 (endogenous, in lysates of RafAR-expressing NIH3T3 cells) (other, UniProt P39689 2-159, looked up)
chain: SNPGDVRPVPHRSKVCRCLFGPVDSEQLRRDCDALMAGCLQEARERWNFDFVTETPLEGNFVWERVRSLGLPKVYLSPGSRSRDDLGGDKRPSTSSALLQGPAPEDHVALSLSCTLVSERPEDSPGGPGTSQGRKRRQTSLTDFYHSKRRLVFCKRKP
notes: also called p21^Cpi1
B2: purified recombinant GST-E7 (HPV16 E7) (other)
chain: MHGDTPTLHEYMLDLQPETTDLYCYEQLNDSSEEEDEIDGPAGQAEPDRAHYNIVTFCCKCDSTLRLCVQSTHVDIRTLEDLLMGTLGIVCPICSQKP

Key:
[1] = tested on: Akt phosphorylated on serine 473 (P-Akt); format: cell-based, murine
Description: The drugs and R1881 were added at 0 hr and the samples were taken at 6 hrs post-treatment.
Immunoblotting and immunoprecipitations (IP). Cell pellets were lysed in HLB lysis buffer (50 mM Tris pH 8.0, 150 mM NaCl, 1% Triton X-100, 1 mM DTT, and protease inhibitor cocktail (Sigma P8340)) for 30 minutes with vortexing. After centrifugation, protein content was quantitated via a standard BioRad Bradford assay. For immunoblotting, 30-50 μg of cell lysate was separated by sodium dodecyl sulfate-polyacrylamide gel electrophoresis (SDS-PAGE) and transferred onto nitrocellulose membrane (Schleicher and Schuell). After incubation with primary and secondary antibodies, antigen detection was performed using the enhanced chemiluminescence kit from NEN. The following antibodies were obtained from Santa Cruz: α-cyclin D1 (sc-450, Western), α-cyclin D2 (sc-593, Western), α-cyclin E (sc-481, IP and Western), α-human cyclin E (sc-198, IP and Western), α-CDK2 (sc-163 g, IP and Western), α-CDK4 (sc-260, IP and Western), α-p21^Cip1 (sc-6246, Western), α-p21^Cip1 (sc-397, IP and immunofluorescence), and a-phospho-threonine (sc-5267, Western). HPV-16 E7-specific and RB-specific antibodies were purchased from Zymed and Pharmingen, respectively. Antibodies recognizing Akt or Akt phosphorylated at serine-473 were obtained from Cell Signaling. For immunoprecipitations, cell lysates were incubated with primary antibodies for 2 hours at 4° C., and immune-complexes were collected on Protein A-agarose beads (Santa Cruz) for an additional 1 hour. The complexes were washed four times with HLB buffer and resolved by 12% SDS-PAGE for immunoblotting.
c-Raf-1 was induced by addition of the androgen analog R1881, as described herein and the cells harvested at various times thereafter.

RafAR-expressing NIH3T3 = test: Cell morphology after RafAR activation in NIH3T3; format: cell-based, murine; details: RafAR activation with 1.0 μM R1881
[2] = tested on: NIH3T3 cells stably expressing the RafAR fusion protein; test: Cell cycle analysis (BrdU incorporation / propidium iodide) in RafAR-expressing NIH3T3 cells; format: cell-based, murine; details: control cells (Babe), RafAR activation with 1.0 μM R1881, 30 hours
Description: (A) NIH3T3 cells stably expressing the RafAR fusion protein were infected with amphotrophic retroviruses expressing HPV-16 E7 (E7) or empty vector (Babe). Lysates were prepared and 100 μg of protein was resolved by 15% SDS-PAGE, transferred to nitrocellulose membrane, and probed with a monoclonal antibody directed against HPV-16 E7. (B and C) Pools of Babe- or E7-expressing cells growing in DMEM plus 10% NCS were treated with 0.02% ethanol (−) or 1.0 μM R1881 (+) for 30 hours and pulsed with BrdU for 30 minutes. Cells were trypsinized, fixed in 70% ethanol, and stained with propidium iodide (PI) for detection of total DNA content (B) and with α-BrdU-FITC for detection of DNA synthesis (C).
(A) E7-expressing cells were treated for 30 hours with 1.0 μM R1881 in the absence or presence of increasing concentrations of LY294002 (50 μM, 100 μM, 200 μM), an inhibitor of PI-3K activity. DNA synthesis was measured via BrdU incorporation. (B) E7-expressing cells were treated with 1.0 uM R1881 in the presence or absence of 100 uM LY294002, stained with p21^Cip1-specific antibody, and quantitated for nuclear p21^Cip1 localization as in FIG. 7. […] Cells were stained with α-BrdU, and GFP-positive cells were scored for BrdU incorporation via indirect immunofluorescence. Percentages of BrdU incorporation were calculated by defining the number obtained from vehicle-treated cells as 100%. […]

[3] = tested on: human foreskin keratinocytes (HFK); test: Adriamycin DNA damage in control or E7-expressing HFK, Western blots for active Akt and p21^CIP; format: cell-based; details: 0.1 mM Adriamycin, 17 hours
[4] = tested on: p27^Kip1 nuclear localization; test: p27^Kip1 localization by immunofluorescence in TGF-β treated tet-E7 Mv1Lu cells; format: cell-based, mink; details: 3 ng/mL TGF-β, 24 hours, absence of E7
Description: (A) Tet-E7 Mv1Lu cells were treated for 24 hours with 2 μg/mL doxycycline or vehicle. Cell lysates were analyzed by Western blotting with antibody specific for HPV16 E7. (B) Tet-E7 Mv1Lu cells were treated for 24 hours with 3 ng/mL TGF-β in the presence or absence of 2 μg/mL doxycycline and subsequently analyzed for p27^Kip1 expression via Western blot. (C, D) Tet-E7 Mv1Lu cells were treated as in (B), fixed with 3.7% paraformaldehyde, and stained with p27^Kip1 specific antibody as described in Materials and Methods. (C) Representative fluorescent (left panels) and phase contrast (right panels) micrographs of TGF-β treated cells in the absence (upper panels) or presence (lower panels) of doxycycline. […] The number of cells with nuclear p27^Kip1 accumulation is represented as a percentage of total cells counted. The average and deviation values shown are from two independent experiments with at least 200 cells counted per experiment.
Cell culture. NIH3T3 cells stably expressing the RafAR fusion protein have been described previously (Sewing et al., 1997). This cell line and all derivatives were cultured in DMEM without phenol red (GIBCO-BRL) supplemented with 10% charcoal-stripped newborn calf serum (NCS, Hyclone). […]
Immunofluorescence. […] Antigen staining was visualized by inverted fluorescence microscopy (Olympus CK40), and images were captured with Quality Imaging camera and software. […]

[5] = target: cyclin E (endogenous, in lysates of RafAR-NIH3T3 cells) (UniProt Q61457 1-408); test: cyclin E immunoprecipitation, p21^Cip1 Western blot
[6] = target: T1, RB (retinoblastoma protein, endogenous, …); test: GST pull-down from control cell lysate, Western blot
[7] = target: B1; test: as above
[8] = drug added with R1881 at 0 hr, samples taken 6 hrs post-treatment

For CC(C)C[C@@H](C=O)NC(=O)[C@H](CC(C)C)NC(=O)[C@H](CC(C)C)NC(=O)OCc1ccccc1 [MG132] (Cbz-Leu-Leu-Leu-aldehyde), the “down-regulation of active Akt (P-Akt) on induction of c-Raf-1” value [1, 8] was “down-regulation of P-Akt was similar to control cells”.

With C[C@]1(O)CC[C@H]2[C@@H]3CCC4=CC(=O)CCC4=C3C=C[C@@]21C [R1881, methyltrienolone] the cell morphology (RafAR-expressing NIH3T3) was “morphological changes including elongation and development of extended processes”, the “time post-treatment at which down-regulation of active Akt (P-Akt) is observed” value ([1]; c-Raf-1 induced by R1881) was at most 5 h and the “time post-treatment at which total Akt protein levels decrease” value ([1]; c-Raf-1 induced by R1881) was 19 to 26 h. The DNA synthesis [2] was “inhibition of DNA synthesis” and the “cells accumulating in G1” value [2] was over 85%.

N#CC(=C(/N)Sc1ccccc1N)/C(C#N)=C(\N)Sc1ccccc1N [U0126] was tested, and the “basal level of active Akt” value [1] was “increased” and the “down-regulation of active Akt (P-Akt) on induction of c-Raf-1” value [1] was “down-regulation is inhibited”.

In the case of COc1cccc2c1C(=O)c1c(O)c3c(c(O)c1C2=O)C[C@@](O)(C(=O)CO)C[C@@H]3O[C@H]1C[C@H](N)[C@H](O)[C@H](C)O1 [adriamycin], the “active Akt levels after adriamycin treatment” value [3] is reported as “maintained only in E7-expressing cells” and the “p21^CIP levels after adriamycin treatment” value [3] is reported as “increased”.

For C[C@@H]1C[C@@H]([C@H](O)CC2CC(=O)NC(=O)C2)C(=O)[C@@H](C)C1 [cyclohexamide], the “down-regulation of active Akt (P-Akt) on induction of c-Raf-1” value [1, 8] was “inhibited the down-regulation of Akt”.

With TGF-β the “nuclear accumulation of p27^Kip1” value [4] was “robust nuclear accumulation”.

B1: binds [5].

B2: binds [6]; no binding [7].
